Here are results for one compound from patent US4999424A, “GAR transformylase inhibitor” (The Pennsylvania State University, priority 1988, dated 1991).

The target in one experiment is T1, E. coli GAR TFase (Escherichia coli, UniProt P08179).
T1 construct: made in house; host or cells: E. coli TX393 with multicopy plasmid pJS85, or E. coli TX635 with lambda pL plasmid pJS119 or pJS167
T1 sequence (P08179 1-212): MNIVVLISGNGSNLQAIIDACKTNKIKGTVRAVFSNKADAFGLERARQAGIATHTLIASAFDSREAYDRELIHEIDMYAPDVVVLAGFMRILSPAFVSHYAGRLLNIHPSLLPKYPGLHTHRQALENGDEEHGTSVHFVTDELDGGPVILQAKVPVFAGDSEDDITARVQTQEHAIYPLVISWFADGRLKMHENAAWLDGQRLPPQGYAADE
Kind of experiment: Fluorescence titration, dissociation constant for E. coli GAR TFase. Format: binding. The note with it: average from three wavelengths (396, 400, 405 nm); standard error about 50 pM; 11 nM inhibitor, excitation 275 nm; read-out: thermodynamic dissociation constant, KD. The method, then: The thermodynamic dissociation constant, KD, for the E.β-TGDDF complex was measured by following the enhancement of the inhibitor's 395 nm fluorescence (excitation at 275 nm) upon binding to GAR TFase. A concentrated E. coli GAR TFase solution was added to an 11 nM solution of purified β-TGDDF; for each addition, the fluorescence at three different wavelengths (396, 400, and 405 nm) was measured. Fluorescence titration data was analyzed by the method of Taira and Benkovic, J. Med. Chem., 31, 129-137 (1988).
In analyzing the biological activity of the compounds of the present invention, GAR TFase from E. coli was used. This enzyme behaves like the mammalian and avian enzyme with respect to substrate specificity, yet is a simple and effective system having only one biological activity. That is, unlike the avian trifunctional GAR TFase, the E. coli species has a sole function. This follows from the genetic evidence of Smith and Daum, J. Biol. Chem., 262, 10565-10569 (1987) as w®11 as the work of Schrimsher et al., Biochemistry, 25, 4366-4371 (1986) who have shown that […] from E. coli is a monofunctional protein, whereas, in chicken it belongs to a trifunctional protein containing, the activates: GAR SYNthase, GAR TFase, and AIR SYNthase.
The E. coli GAR TFase binding constants for the compounds of the present invention and other folate analogs are shown in Table I below: […]

The target in a further experiment is GAR TFase (avian) (Gallus gallus, UniProt P21872). Description: Avian GAR TFase inhibition. The class given is biochemical. The note with it: for Mode of inhibition: avian GAR TFase. The protocol: (§1) All assays were carried out by following the increase of 5,8-dideazafolate absorbence at 295 nm in buffered medium at 26° C. To initiate the reaction, enzyme (1 nM final concentration) was added to a mixture of saturating substrates and variable amounts of inhibitor. A characteristic family of curves was obtained, showing slow, tight-binding inhibition. See, Morrison, Trends Biochem. Sc., 7, 102 (1982) and Morrison, et al., Adv. Enzymology, Relat. Areas Mol. Biol., 57, 201-301 (1987).
(§2) The specificity of beta-TGDDF for GAR TFase from species other than E. coli was assayed in a general manner by measuring the activity of GAR TFase at a concentration of 1 nM from avian, HeLa, and L121? sources in the presence of 20 nM beta-TGDDF.
(§3) Table II illustrates the specificity of beta-TGDDF for GAR TFase in comparison with other reduced-folate utilizing enzymes. This test, was conducted using the same [I]/[E]ratios as stated previously.

For a further experiment, the target named is T2, GAR TFase (HeLa O) (Homo sapiens, UniProt P22102).
T2 construct: GAR TFase activity is the C-terminal domain of trifunctional GART
T2 sequence (P22102 2-1010): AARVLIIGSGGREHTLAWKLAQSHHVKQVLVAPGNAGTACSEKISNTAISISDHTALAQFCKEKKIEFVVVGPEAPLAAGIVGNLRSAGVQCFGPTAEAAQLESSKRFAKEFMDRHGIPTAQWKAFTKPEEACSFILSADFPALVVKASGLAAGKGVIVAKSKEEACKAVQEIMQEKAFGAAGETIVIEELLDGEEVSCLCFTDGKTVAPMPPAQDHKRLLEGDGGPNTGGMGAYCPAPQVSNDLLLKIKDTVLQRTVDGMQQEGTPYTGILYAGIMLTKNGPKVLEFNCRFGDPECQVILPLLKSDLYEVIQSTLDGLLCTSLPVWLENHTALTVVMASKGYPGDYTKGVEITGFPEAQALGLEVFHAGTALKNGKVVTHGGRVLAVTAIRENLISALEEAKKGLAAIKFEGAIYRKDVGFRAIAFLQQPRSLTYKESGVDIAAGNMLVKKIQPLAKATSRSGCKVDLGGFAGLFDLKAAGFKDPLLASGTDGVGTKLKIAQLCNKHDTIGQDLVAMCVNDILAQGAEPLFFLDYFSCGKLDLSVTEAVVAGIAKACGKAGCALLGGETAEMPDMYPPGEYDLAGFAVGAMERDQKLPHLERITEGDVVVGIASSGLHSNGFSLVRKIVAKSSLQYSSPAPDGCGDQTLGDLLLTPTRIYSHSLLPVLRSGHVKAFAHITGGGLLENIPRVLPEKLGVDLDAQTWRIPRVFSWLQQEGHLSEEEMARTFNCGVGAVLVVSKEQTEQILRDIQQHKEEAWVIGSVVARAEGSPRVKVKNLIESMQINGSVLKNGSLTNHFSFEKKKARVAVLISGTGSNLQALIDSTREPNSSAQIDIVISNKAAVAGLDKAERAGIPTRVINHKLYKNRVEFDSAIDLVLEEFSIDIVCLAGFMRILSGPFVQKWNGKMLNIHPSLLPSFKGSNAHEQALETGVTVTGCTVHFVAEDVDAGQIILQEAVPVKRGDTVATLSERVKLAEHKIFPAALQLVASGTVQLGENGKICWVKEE
Description: HeLa O GAR TFase inhibition. The class given is biochemical. The note with it: for Mode of inhibition: HeLa O GAR TFase. The method, then:
as §1, §2, §3
E. coli GAR TFase was prepared and purified as described below. L1210 and HeLa GAR TFase were purified according to published procedures. AICAR TFase was prepared according to published procedures.

The term Kd denotes the constant that tells how readily two partners part at equilibrium.

Sequence of GAR TFase (avian) (P21872 whole entry): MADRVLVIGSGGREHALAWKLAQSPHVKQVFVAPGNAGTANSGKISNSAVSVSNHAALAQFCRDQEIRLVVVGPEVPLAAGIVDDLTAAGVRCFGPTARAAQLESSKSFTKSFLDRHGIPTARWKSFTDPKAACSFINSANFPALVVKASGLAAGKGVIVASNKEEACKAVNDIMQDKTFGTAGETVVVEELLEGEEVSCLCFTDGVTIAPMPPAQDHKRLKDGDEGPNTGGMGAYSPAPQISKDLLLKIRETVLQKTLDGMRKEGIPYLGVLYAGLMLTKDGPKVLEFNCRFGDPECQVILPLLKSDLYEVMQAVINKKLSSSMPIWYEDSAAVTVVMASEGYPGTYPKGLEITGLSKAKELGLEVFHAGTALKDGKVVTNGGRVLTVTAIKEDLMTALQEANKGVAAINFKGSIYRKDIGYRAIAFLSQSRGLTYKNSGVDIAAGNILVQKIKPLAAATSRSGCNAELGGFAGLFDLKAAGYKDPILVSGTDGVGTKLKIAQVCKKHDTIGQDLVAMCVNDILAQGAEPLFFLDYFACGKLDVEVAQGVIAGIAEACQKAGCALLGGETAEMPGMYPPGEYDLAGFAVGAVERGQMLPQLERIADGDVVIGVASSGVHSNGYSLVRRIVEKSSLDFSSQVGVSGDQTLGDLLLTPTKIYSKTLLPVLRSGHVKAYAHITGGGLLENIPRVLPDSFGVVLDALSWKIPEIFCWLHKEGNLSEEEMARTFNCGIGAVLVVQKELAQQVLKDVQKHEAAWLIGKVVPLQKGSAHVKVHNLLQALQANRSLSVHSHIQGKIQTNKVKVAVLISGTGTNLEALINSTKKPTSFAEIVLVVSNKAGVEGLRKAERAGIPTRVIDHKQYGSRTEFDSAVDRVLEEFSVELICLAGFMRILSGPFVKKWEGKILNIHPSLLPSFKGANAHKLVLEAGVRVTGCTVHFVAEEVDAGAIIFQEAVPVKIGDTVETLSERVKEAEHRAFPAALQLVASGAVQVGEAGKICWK

For the compound `Nc1nc2ccc(CN(C(=O)CSCC(=O)N[C@@H]3O[C@H](COP(=O)(O)O)[C@@H](O)[C@H]3O)c3ccc(C(=O)N[C@@H](CCC(=O)O)C(=O)O)cc3)cc2c(=O)[nH]1` [beta-TGDDF, N^10-[5'-phosphoribosyl-1'-β-amino-carbonylmethyl-1-thioacetyl]-5,8-dideazafolate], on E. coli GAR TFase, the Kd was found to be 0.25 nM. Besides, the Extent of inhibition entry at GAR TFase (avian) (20 nM beta-TGDDF, 1 nM enzyme) is given as “inhibited by roughly the same magnitude”; at GAR TFase (HeLa O) (20 nM beta-TGDDF, 1 nM enzyme), “inhibited by roughly the same magnitude”. Also, the Mode of inhibition entry at GAR TFase (avian) is “inhibition of a slow, tight binding nature”; on GAR TFase (avian) (listed as Beta-TGDDF) it was “slow, tight-binding inhibitor”; at GAR TFase (HeLa O) it was “inhibition of a slow, tight binding nature”; at GAR TFase (HeLa O) (listed as Beta-TGDDF), “slow, tight-binding inhibitor”.
